The values below are quoted from earlier work in patent US6506055B1, “Method of reducing dentin sensitivity and compositions therefor” (MCG Research Institute, priority 1999, dated 2003).

The conditions of this series: 3% w/v applied to dentin; both in vitro and in vivo.

Each structure is given as a SMILES string.

As for `O=C([O-])C(=O)O.[K+]` [monopotassium-monohydrogen oxalate], the “Hydraulic conductance of dentin” value is listed as “reduced”.
